In patent publication US5876746A, “Transdermal patch and method for administering 17-deacetyl norgestimate alone or in combination with an estrogen” (Cygnus, Inc., priority 1996, dated 1999):
Like-named read-outs stand apart in the source and are kept apart here.

Experimental: Mixtures of Duro-Tak 87-2287, 0.26% aluminum acetylacetonate crosslinker, 6% 17-d-Ngm, 1% EE, and various permeation enhancers were prepared. These mixtures were cured and cast as a 100 micron thick (wet) layer onto a 3M 1022 polyester backing and dried. Skin flux tests were carried out on the resulting assemblies according to the procedure described in col. […] HPLC was used to assay for 17-d-Ngm and EE. A Perkin Elmer HPLC system with Diedoarray detector set at 245 nm and 215 nm for 17-d-Ngm and EE, respectively. The mobile phase was 55% water, 45% acetonitrile at a flow rate of 1.0 ml/min. Retention time was 4.5 and 3.0 min. for 17-d-Ngm and EE, respectively.
It was mixed with 17-d-Ngm, EE, 7% PVP (K30 from BASF; dissolved in n-propanol) and various enhancers. These mixtures were cast as a 100 micron thick (wet) layer onto a 3M 1022 polyester backing and dried. Skin flux tests were carried out on the resulting assemblies as in Example 1.
PIB solutions were prepared by dissolving VISTANEX L100, Vistanex LM-MS-LC, and polybutene (Indopol H1900) in hexane. Suspensions of PVP-CLM, 17-d-Ngm, EE and various enhancers in ethanol/ethyl acetate were prepared. The PIB solution was added to the drug suspensions and the resulting mixtures were thoroughly blended. The mixtures were cast as a 10 mil thick (wet) layer onto release liners and dried at 70° C. for 40 min. Saranex 2015 backing was laminated to the subassembly. Skin flux studies were carried out on these assemblies as in Example 1.

SMILES: C[C@]12CC[C@@H]3c4ccc(O)cc4CC[C@H]3[C@@H]1CC[C@@H]2O [17β-estradiol]
- Flux (Table 5: 2% 17β-estradiol, 2% 17-deacetynorgetimate, 20% PVP-CLM, 76% PIB adhesive): 0.20 μg/cm^2 /hr

SMILES: C#C[C@]1(O)CC[C@H]2[C@@H]3CCc4cc(O)ccc4[C@H]3CC[C@@]21C [EE, ethinyl estradiol]
- Flux (Table 1: 2% TG + 4% OL, Duro-Tak 87-2287, 6% 17-d-Ngm, 1% EE): 0.061 ± 0.007 μg/cm^2 /hr
- Flux (Table 1: 2% TG + 10% ML, Duro-Tak 87-2287, 6% 17-d-Ngm, 1% EE): 0.076 ± 0.005 μg/cm^2 /hr
- Flux (Table 1: 2% TG + 10% PGML, Duro-Tak 87-2287, 6% 17-d-Ngm, 1% EE): 0.057 ± 0.009 μg/cm^2 /hr
- Flux (Table 1: 3% TG, Duro-Tak 87-2287, 6% 17-d-Ngm, 1% EE): 0.043 ± 0.011 μg/cm^2 /hr
- Flux (Table 1: 4% TG + 15% ML, Duro-Tak 87-2287, 6% 17-d-Ngm, 1% EE): 0.072 ± 0.002 μg/cm^2 /hr
- Flux (Table 2: silicone 4202, 7% PVP, 2% 17-d-Ngm, 0.5% EE, 2% TG + 2% ML): 0.18 ± 0.02 μg/cm^2 /hr
- Flux (Table 2: silicone 4202, 7% PVP, 4% 17-d-Ngm, 0.5% EE, 2% ML): 0.074 ± 0.008 μg/cm^2 /hr
- Flux (Table 2: silicone 4202, 7% PVP, 4% 17-d-Ngm, 0.5% EE, 5% ML + 1% TG): 0.069 ± 0.007 μg/cm^2 /hr
- Flux (Table 2: silicone 4202, 7% PVP, 6% 17-d-Ngm, 0.5% EE, 5% ML + 1% TG): 0.043 ± 0.004 μg/cm^2 /hr
- Flux (Table 2: silicone 4202, 7% PVP, 6% 17-d-Ngm, 0.5% EE, 14% (TC:PGML; 80:20)): 0.062 ± 0.01 μg/cm^2 /hr
- Flux (Table 2: silicone 4202, 7% PVP, 6% 17-d-Ngm, 0.5% EE, 14% PGML): 0.070 ± 0.01 μg/cm^2 /hr
- Flux (Table 2: silicone 4202, 14% PVP, 4% 17-d-Ngm, 0.5% EE, 4% TG + 5% ML): 0.078 ± 0.01 μg/cm^2 /hr
- Flux (Table 3: 0.1% EE, 1% 17-d-Ngm, 5% ML, 7% PVP-CLM, 86.9% silicone): 0.05 ± 0.002 μg/cm^2 /hr
- Flux (Table 3: 0.1% EE, 1% 17-d-Ngm, 5% ML, 7% PVP-K30, 86.9% silicone): 0.04 ± 0.008 μg/cm^2 /hr
- Flux (Table 4: PIB 1:5:4, 0.2% EE, 1.0% 17-d-Ngm, 20% PVP-CLM, 5% AMWAT): 0.05 ± 0.004 μg/cm^2 /hr
- Flux (Table 4: PIB 1:5:4, 0.2% EE, 2.0% 17-d-Ngm, 20% PVP-CLM, 3% oleic acid): 0.06 ± 0.002 μg/cm^2 /hr
- Flux (Table 4: PIB 1:5:4, 0.2% EE, 2.0% 17-d-Ngm, 20% PVP-CLM, 5% lauramide diethanoiamine): 0.06 ± 0.001 μg/cm^2 /hr
- Flux (Table 4: PIB 1:5:4, 0.2% EE, 2.0% 17-d-Ngm, 20% PVP-CLM, 10% PGML): 0.09 ± 0.001 μg/cm^2 /hr
- Flux (Table 4: PIB 1:5:4, 0.2% EE, 2.0% 17-d-Ngm, 20% PVP-CLM, 10/0.5% PGML/oleic acid): 0.10 ± 0.001 μg/cm^2 /hr
- Flux (Table 4: PIB 1:5:4, 0.2% EE, 3.0% 17-d-Ngm, 20% PVP-CLM, 3% oleic acid): 0.04 ± 0.002 μg/cm^2 /hr
- Flux (Table 4: PIB 1:5:4, 0.2% EE, 3.0% 17-d-Ngm, 20% PVP-CLM, 10% PGML): 0.07 ± 0.001 μg/cm^2 /hr
- Flux (Table 4: PIB 1:5:4, 0.2% EE, 4.0% 17-d-Ngm, 20% PVP-CLM, 5% lauric acid N,N-dimethyl amide): 0.04 ± 0.001 μg/cm^2 /hr
- Flux (Table 4: PIB 1:5:4, 0.3% EE, 4.0% 17-d-Ngm, 20% PVP-CLM, 8% PGIS): 0.10 ± 0.001 μg/cm^2 /hr
- Flux (Table 4: PIB 1:5:4, 0.3% EE, 4.0% 17-d-Ngm, 20% PVP-CLM, 8/3% PGML/oleic acid): 0.14 ± 0.001 μg/cm^2 /hr
- Flux (Table 4: PIB 1:5:4, 0.3% EE, 4.0% 17-d-Ngm, 20% PVP-CLM, 15% dibutylsebacate): 0.06 ± 0.005 μg/cm^2 /hr
- Flux (Table 4: PIB 1:5:4, 0.3% EE, 4.0% 17-d-Ngm, 20% PVP-CLM, 15% ethyl oleate): 0.10 ± 0.001 μg/cm^2 /hr
- Flux (Table 4: PIB 1:5:4, 0.3% EE, 4.0% 17-d-Ngm, 20% PVP-CLM, 15% isopropyl palmitate): 0.07 ± 0.001 μg/cm^2 /hr
- Flux (Table 4: PIB 2:4:4, 0.3% EE, 4.0% 17-d-Ngm, 20% PVP-CLM, 20% propyl laurate): 0.06 ± 0.002 μg/cm^2 /hr
- Flux (Table 6: 70.8% PIB, 20% PVP-CLM, 0.2% EE, 2% 71-d-Ngm, 7% lauryl lactate, skin permeability Low): 0.03 μg/cm^2 /hr
- Flux (Table 6: 70.8% PIB, 20% PVP-CLM, 0.2% EE, 2% 71-d-Ngm, 7% lauryl lactate, skin permeability Medium): 0.08 μg/cm^2 /hr
- Flux (Table 6: 72.8% PIB, 20% PVP-CLM, 0.2 EE, 2% 17-d-Ngm, 5% myristyl lactate, skin permeability not given): 0.09 μg/cm^2 /hr
- Flux (Table 6: 72.85% PIB, 20% PVP-CLM, 0.15% EE, 5% lauryl lactate, skin permeability High): 0.08 μg/cm^2 /hr
- Flux (Table 6: 72.85% PIB, 20% PVP-CLM, 0.15% EE, 5% lauryl lactate, skin permeability Low): 0.02 μg/cm^2 /hr
- Flux (Table 6: 72.85% PIB, 20% PVP-CLM, 0.15% EE, 5% lauryl lactate, skin permeability Medium): 0.05 μg/cm^2 /hr
